Measured values from patent publication US20060160895A1, “Anti-cancer agents” (priority 2004, published 2006).

Columns and labels:
Format in all cases: cell-based, human
[1] = test system: lung adenocarcinoma (SPC-A-1); test: in vitro MTT proliferation assay, SPC-A-1 cells; conditions: 48 hrs, 0.3-100 μg/ml, absorbance at 492 nm
Method: (§1) An in vitro assay was conducted to evaluate the efficacy of LuA, LuB, and LuE in inhibiting proliferation of cancer cells.
(§2) Four human tumor cell lines, i.e., gastric adenocarcinoma (AGS, BGC-823), lung carcinoma (A549), and lung adenocarcinoma (SPC-A-1), were purchased from the Cell Bank of Shanghai Institute of Cell Biology, Chinese Academy of Sciences, and cultured in Iscove's Modified Dulbecco's Medium (IMDM) containing 10% fetal bovine serum (FBS) in an incubator at 37° C. under 5% CO2. Cells of 70˜80% confluence were trypsinized, resuspended in IMDM medium containing 10% FBS at 1×10^5 cells/ml, and seeded in 96-well plates (100 μl in each well). The plates were incubated at 37° C. under 5% CO2 overnight.
(§3) A DMSO solution containing LuA, LuB, or LuE was added to each “treatment” well. Efficacy of LuA, LuB, and LuE at six concentrations, 100, 30, 10, 3, 1, and 0.3 μg/ml, was studied. Wells, to each of which a DMSO solution (containing no LuA, LuB, or LuE) was added, were used as “control;” and wells, to each of which no LuA, LuB, LuE, or DMSO was added, were used as “background.” The plates were then incubated at 37° C. under 5% CO2 for 48 hrs.
(§4) 10 μl of 3-(4,5-dimethyl-thiazol-2-yl)-2,5-diphenyl tetrazolium bromide in phosphate buffered saline (PBS), 5 mg/ml, was added to all wells except the background wells. After incubation for 3-4 hrs, the cells were collected by spinning at 1000 rpm for 15 minutes, followed by removal of the supernatants by vacuum. The cells thus collected in each well, after wash with 150 μl of PBS, were placed in 150 μl of DMSO.
(§5) The plates were then placed on a shaker at 150 rpm for 15 minutes to dissolve the precipitate in each well. Absorbance was measured at 492 nm using a microplate reader.
(§6) Inhibition ratios for cells treated with LuA, LuB, and LuE, respectively, were calculated according to the following equation: [formula]
(§7) A software program, XLfit (ID Business Solutions), was used to calculate the concentrations of LuA, LuB, and LuE required to reach 10, 20, . . . 90% inhibition (i.e., IC10, IC20, . . . IC90) for each tested tumor cell line.

[2] = test system: gastric adenocarcinoma (BGC-823); test: in vitro MTT proliferation assay, BGC-823 cells; conditions: 48 hrs; for inhibition of cancer cell line BGC-823: 0.3-100 μg/ml, absorbance at 492 nm; for IC50 values for BGC-823: calculated with XLfit
Method: as §1, §2, §3, §4, §5, §6, §7

lung carcinoma (A549) = test: in vitro MTT proliferation assay, A549 cells; conditions: 48 hrs; for inhibition of cancer cell line A549: 0.3-100 μg/ml, absorbance at 492 nm; for IC50 values for A549: calculated with XLfit
Method: as §1, §2, §3, §4, §5, §6, §7

[3] = test system: gastric adenocarcinoma (AGS); test: in vitro MTT proliferation assay, AGS cells; conditions: 48 hrs; for inhibition of cancer cell line AGS: 0.3-100 μg/ml, absorbance at 492 nm; for IC50 values for AGS: calculated with XLfit
Method: as §1, §2, §3, §4, §5, §6, §7

For `C=C1C(=O)[C@]23C[C@H]1C[C@@H](O)[C@H]2[C@]1(C)C[C@H](OC(C)=O)[C@H](OC(C)=O)C(C)(C)[C@H]1[C@@H](OC(C)=O)[C@@H]3O` [LuE, Lushanrubescensin E], which “inhibition of cancer cell line SPC-A-1” value [1] is on record?
The value was “effectively inhibited”.

What about the “inhibition of cancer cell line BGC-823” value [2] of the same molecule?
Its value is “effectively inhibited”.

And the “inhibition of cancer cell line A549” value (lung carcinoma (A549))?
Its value is “effectively inhibited”.

What about the “inhibition of cancer cell line AGS” value [3] of the same molecule?
The value was “effectively inhibited”.

Which results are given for `C=C1C(=O)[C@]23C[C@H]1C[C@H](O)[C@H]2[C@]1(C)C[C@H](OC(C)=O)[C@H](OC(C)=O)C(C)(C)[C@H]1[C@@H](OC(C)=O)[C@@H]3O` [LuB, Lushanrubescensin B]?
inhibition of cancer cell line SPC-A-1 [1]: effectively inhibited; inhibition of cancer cell line BGC-823 [2]: effectively inhibited; IC50 values for BGC-823 [2]: particularly low; inhibition of cancer cell line A549 (lung carcinoma (A549)): effectively inhibited; IC50 values for A549 (lung carcinoma (A549)): particularly low; inhibition of cancer cell line AGS [3]: effectively inhibited; IC50 values for AGS [3]: particularly low

Which results are given for `C=C1C(=O)[C@]23C[C@H]1C[C@H](OC(C)=O)[C@H]2[C@]1(C)C[C@H](OC(C)=O)[C@H](OC(C)=O)C(C)(C)[C@H]1[C@@H](OC(C)=O)[C@@H]3O` [LuA, Lushanrubescensin A]?
inhibition of cancer cell line SPC-A-1 [1]: effectively inhibited; inhibition of cancer cell line BGC-823 [2]: effectively inhibited; IC50 values for BGC-823 [2]: particularly low; inhibition of cancer cell line A549 (lung carcinoma (A549)): effectively inhibited; IC50 values for A549 (lung carcinoma (A549)): particularly low; inhibition of cancer cell line AGS [3]: effectively inhibited; IC50 values for AGS [3]: particularly low
